{"source": "patent US10961246B2", "about": "“18F-labelled folates as PET radiotracers” (MERCK & CIE, priority 2008, dated 2021)", "key": {"folate receptor [1]": {"test_system": "folate receptor", "format": "in vivo, male NMRI nu/nu mice", "conditions": "ca. 10 MBq; scans 75-105 min post injection", "procedure": "(§1) In vivo PET imaging using the γ-[^18F]fluoro-folic acid was performed in male NMRI nu/nu mice bearing KB tumor xenografts. Ca. 10 MBq of the radiotracer were injected into each animal. In the blockade group, 200 μg natural folic acid was injected 10 min prior to the radiotracer. The PET scans were acquired from 75 min to 105 min post injection.\n(§2) This pattern is consistent with the physiological distribution of the folate receptor and points out the high specificity of γ-[^18F]fluoro-folic acid.\n(§3) FIG. 3 show representative series of normalized horizontal slices of whole body PET scans using γ-[^18F]fluoro-folic acid under control and blockade conditions. Arrows with circles indicate the tumor site and arrows with squares indicate the kidneys."}, "folate receptor [2]": {"target": "T1, folate receptor (Homo sapiens, UniProt P15328)", "T1 construct": "endogenous in cells; host or cells: KB tumor xenografts in male NMRI nu/nu mice", "T1 sequence (P15328 25-234 limits assumed)": "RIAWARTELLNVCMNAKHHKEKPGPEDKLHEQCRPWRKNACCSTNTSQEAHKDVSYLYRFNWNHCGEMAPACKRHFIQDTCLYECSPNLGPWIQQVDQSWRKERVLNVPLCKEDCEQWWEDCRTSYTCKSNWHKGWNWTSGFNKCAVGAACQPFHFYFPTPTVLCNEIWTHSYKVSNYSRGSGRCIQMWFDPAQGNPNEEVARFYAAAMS", "format": "in vivo, male NMRI nu/nu mice", "conditions": "blockade 200 μg natural folic acid 10 min prior; scans 75-105 min post injection", "procedure": "as §1, §2, §3"}, "folate receptor [3]": {"test_system": "folate receptor", "experiment": "Ex vivo biodistribution study in mice bearing KB tumor xenografts, control vs folic acid blockade", "set-up": "species or system male NMRI nu/nu mice", "procedure": "(§4) γ-[^18F]fluoro-folic acid was applied in ex vivo biodistribution studies using male NMRI nu/nu mice bearing KB tumor xenografts. ˜2 MBq of the radiotracer were injected into each animal. In a blockade group, 200 μg natural folic acid was injected 10 min prior to the radiotracer. The animals were sacrificed 105 min post injection."}, "folate receptor [4]": {"target": "T1, folate receptor", "experiment": "Ex vivo biodistribution study in mice bearing KB tumor xenografts, control vs folic acid blockade", "set-up": "species or system male NMRI nu/nu mice", "conditions": "~2 MBq radiotracer; blockade group 200 μg natural folic acid 10 min prior; sacrificed 105 min post injection; KB tumor", "procedure": "as §4"}}, "data": [{"smiles": "Nc1nc2ncc(CNc3ccc(C(=O)N[C@@H](CC([18F])C(=O)O)C(=O)O)cc3)nc2c(=O)[nH]1", "note": "(stereo partly shown) [γ-[^18F]fluoro-folic acid, γ-[^18F]fluorofolic acid]", "values": [{"measurement": "uptake in liver cells (PET)", "setting": "folate receptor [1]", "value": "radioactivity accumulation"}, {"measurement": "uptake in the kidney cortex (PET)", "setting": "folate receptor [1]", "value": "high specific uptake"}, {"measurement": "uptake in the kidney medulla (PET)", "setting": "folate receptor [1]", "value": "no uptake"}, {"measurement": "specificity of uptake in PET", "setting": "folate receptor [2]", "value": "highly specific and blocked by natural folic acid"}, {"measurement": "uptake in folate receptor-positive tissues, such as tumor and kidney (FIG. 2)", "setting": "folate receptor [3]; control group vs blockade group", "value": "high specific uptake"}, {"measurement": "specific blockade of radiotracer uptake in the kidneys", "setting": "folate receptor [3]; ~2 MBq radiotracer, blockade group 200 μg natural folic acid 10 min prior, sacrificed 105 min post injection, kidneys", "value": 86.0, "unit": "%"}, {"measurement": "specific blockade of radiotracer uptake in folate receptor-positive KB tumors", "setting": "folate receptor [4]", "value": 90.0, "unit": "%"}]}]}
